In US10273290B2, “Hydrocarbon double-stapled stabilized HIV-1 GP41 heptad repeat domain peptides” (DANA-FARBER CANCER INSTITUTE, INC., priority 2009, dated 2019):
Bridge positions count the residues as written; N and C are the ends. Square brackets hold non-standard residues; d marks the D form. Ends that are not written are not given here. Peptide text beside a SMILES is read from it. * marks the point of attachment. FITC = O=C1OC2(c3ccc(O)cc3Oc3cc(O)ccc32)c2ccc(NC(=S)*)cc21; S5 = C=CCCC[C@](C)(N)C(=O)O; Nle = CCCC[C@H](N)C(=O)O

Tests used:
[1] = Circular dichroism, α-helical content; type: physicochemical
Procedure: The α-helicity of stapled modified polypeptides was compared to their unmodified counterparts by circular dichroism. CD spectra were obtained on an Aviv spectropolarimeter at 20° C. using the following standard measurement parameters: wavelength, 190-260 nm; step resolution, 0.5 nm; speed, 20 nm/sec; accumulations, 10; response, 1 sec; bandwidth, 1 nm; path length, 0.1 cm. The α-helical content of each peptide was calculated by dividing the mean residue ellipticity [θ]222obs, by the reported [θ]222obs for a model helical peptide (Forood, B., E. J. Feliciano, and K. P. Nambiar, PNAS, 1993. 90(3): p. 838-842; J. Martin Scholtz, Biopolymers, 1991. 31(13): p. 1463-1470; Lawless, M. K., et al., Biochemistry, 1996. 35(42): p. 13697-13708) or using, for example, the Aviv machine using CDNN software developed by Brohm in order to deduce five different secondary structure fractions (helix, parallel and antiparallel beta-sheet, beta-turn and random coil). Protein Engineering, 1992. 5(3); p. 191-195
In order to evaluate secondary structure improvements of hydrocarbon-stapled peptides, we record and analyze circular dichroism (CD) spectra on an Aviv Biomedical spectrometer (model 410), as described above. […] The CD spectra are initially plotted as wavelength versus millidegree. […] After conversion to mean residue ellipticity, percent α-helicity can be calculated using the equation, % helicity=100×[θ]222/^max[θ]222, where ^max[θ]222=−40,000×[1−(2.5/number of amino acid residues)]. We also employ the curve-fitting CDDN software that is bundled with our spectrometer to calculate the relative fractions of secondary structure including α-helix, parallel and antiparallel β-sheet, β-turn and random coil.

[2] = system: pepsin; assay: Protease resistance assay, pepsin at pH 2; conditions: pepsin at 0.5 ng/μL, peptide 25 μM, acidic conditions
Procedure: The DAD signal was set to 280 nm with an 8 nm bandwidth and MSD set to scan mode with one channel at (M+2H)/2, +1 mass units and the other at (M+3H)/3, +1 mass units. […] Reaction samples were composed of 5 μL peptide in DMSO (1 mM stock) and 195 μL of buffer consisting of 50 mM phosphate buffer pH 7.4 containing 2 mM CaCl2. Upon injection of the 0 hr time point sample, 2 μL of 50 ng/μL chymotrypsin (Sigma) was added and the amount of intact peptide quantitated by serial injection over time. An internal control of acetylated tryptophan carboxamide at a concentration of 100 μM was used to normalize each MSD data point. A plot of MSD area versus time yielded an exponential decay curve and half-lives were determined by nonlinear regression analysis using Prism software (GraphPad). The assay was also performed using trypsin and pepsin in their appropriate buffer conditions.

[3] = Chymotrypsin, pH 7
Description: Table printed on a drawing sheet, FIG. 17D
Title: Chymotrypsin, pH 7
First reader's note: The table also serves as the legend of the plot below it (fraction intact over time); the plot symbols before the compound names are left out.

[4] = biological target: T1, chymotrypsin (Bos taurus, UniProt P00766); assay: Protease resistance assay, chymotrypsin (LC/MS); type: in vitro ADME; conditions: pH 7.4, 0.5 chymotrypsin, peptide 25 μM
T1 construct: purchased Sigma

[5] = system: doubly-mutant HR1 peptides V38A/N42T and V38E/N42S; assay: Native PAGE complex assembly with mutant HR1 peptides; type: binding, HIV-1; conditions: for higher-order complex formation with doubly-mutant HR1 peptides: FITC-labeled peptides, native PAGE
Description: We first performed a native PAGE-based assay designed to monitor the capacity of FITC-HR2 and mutant HR1 peptides to interact to form a stable higher-order complex (He, Y., et al. PNAS (2008)).

Molecule: enfuvirtide [listing 1 of 5 here]
- % helicity at pH 2 [1]: 66%
- % helicity at pH 7 [1]: 26%

Molecule: enfuvirtide [listing 2 of 5 here]
- Half-life (minutes), pepsin [2]: 920 min

Molecule: Enfuvirtide
- Half-Life [3]: 0.2 h

Molecule: CCCC[C@H](NC(C)=O)C(=O)N[C@H](C(=O)N[C@@H](Cc1c[nH]c2ccccc12)C(=O)N[C@@H](CCCC)C(=O)N[C@@H](CCC(=O)O)C(=O)N[C@@H](Cc1c[nH]c2ccccc12)C(=O)N[C@@H](CC(=O)O)C(=O)N[C@@H](CCCNC(=N)N)C(=O)N[C@@H](CCC(=O)O)C(=O)N[C@H](C(=O)N[C@@H](CC(N)=O)C(=O)N[C@@H](CC(N)=O)C(=O)N[C@@H](Cc1ccc(O)cc1)C(=O)N[C@H](C(=O)N[C@@]1(C)CCCC=CCCC[C@@](C)(C(=O)N[C@@H](CC(C)C)C(=O)N[C@H](C(=O)N[C@@H](CCC(=O)O)C(=O)N[C@@H](CCC(=O)O)C(=O)N[C@@H](CO)C(=O)N[C@@H](CCC(N)=O)C(=O)N[C@@H](CC(N)=O)C(=O)N[C@@H](CCC(N)=O)C(=O)N[C@@]2(C)CCCC=CCCC[C@@](C)(C(=O)N[C@@H](CCC(N)=O)C(=O)N[C@@H](CCC(=O)O)C(=O)N[C@@H](CC(C)C)C(=O)N[C@@H](CC(C)C)C(=O)N[C@@H](CCC(=O)O)C(N)=O)NC(=O)[C@H](CC(N)=O)NC(=O)[C@H](CCCCN)NC(=O)[C@H](CCC(=O)O)NC2=O)[C@@H](C)CC)NC(=O)[C@H](Cc2c[nH]cn2)NC(=O)[C@H]([C@@H](C)CC)NC(=O)[C@H](CC(C)C)NC1=O)[C@@H](C)O)[C@@H](C)CC)[C@@H](C)O [SAH-gp41(626-662)(D, F)] (Ac-[Nle]TW[Nle]EWDREINNYT[S5]LIH[S5]LIEESQNQ[S5]EKN[S5]QELLE-NH2; staple 15-19, 28-32)
- Half-Life [4]: 3.02 h

Molecule: FITC-labeled enfuvirtide: FITC-labeled enfuvirtide [reference compound]
- higher-order complex formation with doubly-mutant HR1 peptides [5]: no interactions

Molecule: FITC-T649v: FITC-labeled T649v ({FITC}-LTWLEWDREINNYTSLIHSLIEESQNQQEKNEQELLE) [reference compound]
- higher-order complex formation with doubly-mutant HR1 peptides [5]: formed a higher-order complex

Molecule: enfuvirtide [listing 3 of 5 here]
- % helicity at pH 2 [1]: 79%
- % helicity at pH 7 [1]: 23%
- Half-Life [3]: 0.417 h
- Half-life (minutes), pepsin [2]: 3 min

Molecule: unstapled counterpart: unstapled 20-mer truncation of T649v, residues 626-645 ([Nle]TW[Nle]EWDREINNYTSLIHSL) [reference compound]
- α-helical content ([1]; comparative CD spectra, 20-mer residues 626-645): 20%

Molecule: enfuvirtide [listing 4 of 5 here]
- % helicity at pH 2 [1]: 61%
- % helicity at pH 7 [1]: 48%
- Half-Life [3]: 1.67 h
- Half-life (minutes), pepsin [2]: 227 min

Molecule: CCCC[C@H](NC(C)=O)C(=O)N[C@H](C(=O)N[C@@H](Cc1c[nH]c2ccccc12)C(=O)N[C@@H](CCCC)C(=O)N[C@@H](CCC(=O)O)C(=O)N[C@@H](Cc1c[nH]c2ccccc12)C(=O)N[C@@H](CC(=O)O)C(=O)N[C@@H](CCCNC(=N)N)C(=O)N[C@@H](CCC(=O)O)C(=O)N[C@H](C(=O)N[C@@]1(C)CCCC=CCCC[C@@](C)(C(=O)N[C@@H](CC(C)C)C(=O)N[C@H](C(=O)N[C@@H](Cc2c[nH]cn2)C(=O)N[C@@H](CO)C(=O)N[C@@H](CC(C)C)C(=O)N[C@H](C(=O)N[C@@H](CCC(=O)O)C(=O)N[C@@H](CCC(=O)O)C(=O)N[C@@H](CO)C(=O)N[C@@H](CCC(N)=O)C(=O)N[C@@H](CC(N)=O)C(=O)N[C@@H](CCC(N)=O)C(=O)N[C@@]2(C)CCCC=CCCC[C@@](C)(C(=O)N[C@@H](CCC(N)=O)C(=O)N[C@@H](CCC(=O)O)C(=O)N[C@@H](CC(C)C)C(=O)N[C@@H](CC(C)C)C(=O)N[C@@H](CCC(=O)O)C(N)=O)NC(=O)[C@H](CC(N)=O)NC(=O)[C@H](CCCCN)NC(=O)[C@H](CCC(=O)O)NC2=O)[C@@H](C)CC)[C@@H](C)CC)NC(=O)[C@H]([C@@H](C)O)NC(=O)[C@H](Cc2ccc(O)cc2)NC(=O)[C@H](CC(N)=O)NC1=O)[C@@H](C)CC)[C@@H](C)O [SAH-gp41(626-662)(C, F)] (Ac-[Nle]TW[Nle]EWDREI[S5]NYT[S5]LIHSLIEESQNQ[S5]EKN[S5]QELLE-NH2; staple 11-15, 28-32)
- Half-Life [4]: 8.23 h
- % helicity at pH 2 [1]: 55%
- % helicity at pH 7 [1]: 41%

Molecule: FITC-SAH-gp41(626-662)(A, F): FITC-labeled doubly stapled SAH-gp41(626-662)(A, F) ({FITC}-LTWAEWDAEINNYTSLIHSLIEESQNQAEKNAQELLE; not fully specified (bridges); also: doubly stapled, positions not given here)
- higher-order complex formation with doubly-mutant HR1 peptides [5]: formed a higher-order complex
- fold enhancement in binding activity ([5]; compared to FITC-T649v, densitometric analyses): up to 2 fold

Molecule: enfuvirtide [listing 5 of 5 here]
- % helicity at pH 2 [1]: 57%
- % helicity at pH 7 [1]: 30%
